From PMC8469169, “Design, Synthesis, and Cytotoxicity Assessment of [^64Cu]Cu-NOTA-Terpyridine Platinum Conjugate: A Novel Chemoradiotherapeutic Agent with Flexible Linker” (Nanomaterials, 2021)
Values joined by “and” are separate entries in the source; they are usually repeats but may differ in a detail not shown here. Identical values can stand only once. Like-named read-outs stand apart in the source and are kept apart here.

What was measured:
[1] = test system: HCT116 cells; experiment: PrestoBlue (resazurin) cytotoxicity assay in HCT116 cells; type: cell-based, human
Method: Human CRC cells HCT116 obtained from ATCC were cultured in Eagle’s minimal essential medium (EMEM), while Dulbecco’s modified Eagle medium (DMEM) was used for the normal fibroblast cell line GM05757 purchased from Coriell Institute. […] Cells were incubated at 37 °C in a humidified environment with 5% CO2.
Cytotoxic activity was measured with the PrestoBlue method, which consists of a Resazurin-based metabolic assay. […] The final concentration of DMSO was less than 1%. Then, the media were removed, and the cells were washed with warm PBS and exposed with PrestoBlue reagent for an incubation time of 20 min. Changes in cell viability were recorded by fluorescence (λex = 570 nm; λem = 610 nm). […] The fluorescence values measured for blank groups were subtracted from those obtained from the treated and untreated cells.

[2] = test system: GM05757 cells; experiment: PrestoBlue (resazurin) cytotoxicity assay in GM05757 normal fibroblasts
Method: Human CRC cells HCT116 obtained from ATCC were cultured in Eagle’s minimal essential medium (EMEM), while Dulbecco’s modified Eagle medium (DMEM) was used for the normal fibroblast cell line GM05757 purchased from Coriell Institute. These culture media were supplemented with 10% FBS, 26.2 mM sodium bicarbonate, 2 mM L-glutamine, and a mix of penicillin (100 UI/mL) and streptomycin (100 μg/mL). Cells were incubated at 37 °C in a humidified environment with 5% CO2.
Cytotoxic activity was measured with the PrestoBlue method, which consists of a Resazurin-based metabolic assay. Briefly, HCT116 cells (2 × 10^4 cells per well) and GM05757 cells (5 × 10^3 cells per well) were seeded in a 96-well plate and incubated for 24 h. Then, the cells were treated with the Pt drugs at concentrations ranging from 0 to 500 µM for a subsequent 24, 48, and 72 h. […] The final concentration of DMSO was less than 1%. Then, the media were removed, and the cells were washed with warm PBS and exposed with PrestoBlue reagent for an incubation time of 20 min. Changes in cell viability were recorded by fluorescence (λex = 570 nm; λem = 610 nm). […] The fluorescence values measured for blank groups were subtracted from those obtained from the treated and untreated cells.

[3] = test system: HCT116 cells; conditions: cited from earlier work
[4] = Plasma stability by radio-TLC; type: in vitro ADME, mouse; conditions: room temperature; radio-iTLC; free 64Cu or fragments
Method: Plasma stability of the compound was assessed by incubating [^64Cu]Cu-NOTA-C3-TP in mouse plasma for 72 h at room temperature. Radio-TLC on C18 plates conducted on 0.1 M sodium citrate buffer at pH 5.5, as a developing solvent, was used to detect free ^64Cu. [^64Cu]Cu-NOTA-C3-TP and free [^64Cu]Cu(OAc)2 were employed as control standards.

[5] = test system: HCT116 cells; experiment: Cellular uptake and internalization in HCT116 cells (gamma counting); type: cell-based, human
Method: (§1) HCT116 cells (2 × 10^5 per well) were seeded in 12-well plates for 48 h in EMEM medium completed with 10% FBS at 37 °C until 80% confluence. Cells were washed twice with PBS, and then [^64Cu]Cu-NOTA-C3-TP (0.1 MBq, 50 µL) in EMEM completed medium was added and incubated from 15 min to 72 h to measure cellular uptake and internalization. At each time point, the radioactive media was removed, and cells were washed thrice with cold PBS. To measure the net cellular uptake or internalized fraction, surface-bound Pt drugs were removed by treating with 50 mM glycine in PBS pH 2.2 for 10 min, which was followed by a second cold PBS wash. Then, cells were harvested through trypsinization and counted with a hemocytometer. The radioactivity was measured in a gamma counter (HIDEX Automatic Gamma Counter 2014). The results were expressed as a percentage of added dose (AD) retained per 10^6 cells (%AD/10^6 cells). Parallel experiments were carried out at 4 °C to assess internalization inhibition and surface-bound fraction. For efflux studies, HCT116 cells were incubated for 1 h with 0.1 MBq of [^64Cu]Cu-NOTA-C3-TP. Then, the cells were washed with PBS and fresh culture medium was added. After 0 to 72 h, the medium was removed, and the cells were washed thrice with PBS. Finally, the cells were harvested, and radioactivity was counted with the gamma counter. The results were expressed as percentage of total activity retained by 10^6 cells relative to baseline at 0 min.

[6] = test system: HCT116 cells; experiment: Efflux assay in HCT116 cells; type: cell-based, human
Method: as §1, with “For efflux studies, HCT116 cells were incubated for 1 h with 0.1 MBq of [^64Cu]Cu-NOTA-C3-TP. Then, the cells were washed with PBS and fresh culture medium was added. After 0 to 72 h, the medium was removed, and the cells were washed thrice with PBS.” left out
For efflux studies, we followed the standard protocol of Fournier et al.. […] The activity retained by the cells was measured from 0 to 72 h post administration.

[7] = test system: HCT116 cells; experiment: Subcellular (nucleus/cytoplasm) localization in HCT116 cells; type: cell-based, human; conditions: for Nucleus accumulation HCT116 versus GM05757 (fold reduction in GM05757) / Cytoplasmic distribution / Nucleus localization: high AMA; for Cytoplasmic distribution / Nucleus localization: HCT116
Method: For extraction of HCT116 and GM05757 cell nucleus and cytoplasm, we followed a previously reported procedure [28, 31]. After treatment of HCT116 cells with 1MBq of [^64Cu]Cu-NOTA-C3-TP for 24, 48 and 72 h, CSK buffer (0.5% Triton X-100, 300 mM sucrose, 100 mM NaCl, 1 mM ethylenediaminetetraacetic acid (EDTA), 2 mM MgCl2, and 10 mM HEPES, pH 6.8) were employed for nuclear extraction. After 5 min centrifugation, supernatant was separated, and the retained activity in nuclear plates was counted by a gamma counter (HIDEX Automatic Gamma Counter 2014).

[8] = test system: GM05757 cells; conditions: high AMA
Method: For extraction of HCT116 and GM05757 cell nucleus and cytoplasm, we followed a previously reported procedure. After treatment of HCT116 cells with 1MBq of [^64Cu]Cu-NOTA-C3-TP for 24, 48 and 72 h, CSK buffer (0.5% Triton X-100, 300 mM sucrose, 100 mM NaCl, 1 mM ethylenediaminetetraacetic acid (EDTA), 2 mM MgCl2, and 10 mM HEPES, pH 6.8) were employed for nuclear extraction. After 5 min centrifugation, supernatant was separated, and the retained activity in nuclear plates was counted by a gamma counter (HIDEX Automatic Gamma Counter 2014).

[9] = Pt release at physiological pH by mass spectroscopy; type: physicochemical; conditions: physiological pH 7.2, after 72 h
[10] = 24 h incubation, read-out: EC50 HCT116 24 h
[11] = 48 h incubation, read-out: EC50 HCT116 48 h
[12] = 72 h incubation, read-out: EC50 HCT116 72 h
[13] = read-out: EC50 GM05757 24 h, 24 h incubation
[14] = read-out: EC50 GM05757 48 h, 48 h incubation
[15] = read-out: EC50 GM05757 72 h, 72 h incubation
[16] = HCT116, 24 h, low AMA 0.8 to 4.0 MBq/nmol
[17] = HCT116, 37 °C, 24 h, % of total activity/10^6 cells

SMILES: N.N.[Cl][Pt][Cl] [Cisplatin, reference compound]
- EC50 [1, 10]: 31 ± 2 µM
- EC50 [1, 11]: 42 ± 8 µM
- EC50 [1, 12]: 23 ± 3 µM
- EC50 [2, 13]: 88 ± 4 µM
- EC50 [2, 14]: 84 ± 2 µM
- EC50 [2, 15]: 77 ± 1 µM
- Cellular accumulation [3]: 5 ng Pt/10^6 HCT116 cells

SMILES: F[P-](F)(F)(F)(F)F.O=C(O)CN1CCN(CCCOc2cc3[n+]4c(c2)-c2cccc[n+]2[Pt-2]4([Cl])[n+]2ccccc2-3)CCN(CC(=O)O)CC1 [NOTA-C3-TP]
- EC50 [1, 10]: > 700 µM
- EC50 [1, 11]: 63 ± 2 µM
- EC50 [1, 12]: 24 ± 1 µM
- EC50 [2, 13]: 504 ± 4 µM
- EC50 [2, 14]: 202 ± 5 µM
- EC50 [2, 15]: 51 ± 3 µM

SMILES: O=C1[O][Pt]2([NH][C@@H]3CCCC[C@H]3[NH]2)[O]C1=O [Oxaliplatin, reference compound]
- EC50 [1, 10]: > 200 µM
- EC50 [1, 11]: 64 ± 1 µM
- EC50 [1, 12]: 16 ± 4 µM
- EC50 [2, 13]: > 200 µM
- EC50 [2, 14]: 165 ± 9 µM
- EC50 [2, 15]: 65 ± 3 µM

SMILES: O=C([O-])CN1CCN(CCCOc2cc3[n+]4c(c2)-c2cccc[n+]2[Pt-2]4([Cl])[n+]2ccccc2-3)CCN(CC(=O)[O-])CC1.[64Cu+2] [[^64Cu]Cu-NOTA-C3-TP]
- Viability of HCT116 cells ([1]; 5 MBq, low AMA, 24 h incubation): 22%
- Viability of HCT116 cells ([1]; 8 MBq, low AMA, 24 h incubation): 17%
- EC50 ([1]; 24 h, high AMA ≈120 MBq/nmol, read-out: EC50 HCT116 24 h): 0.017 ± 0.004 µM
- EC50 ([1]; 24 h, low AMA 0.8 to 4.0 MBq/nmol, read-out: EC50 HCT116 24 h): 59 ± 3 µM
- EC50 ([1]; 48 h, high AMA ≈120 MBq/nmol, read-out: EC50 HCT116 48 h): 0.012 ± 0.006 µM
- EC50 ([1]; 48 h, low AMA 0.8 to 4.0 MBq/nmol, read-out: EC50 HCT116 48 h): 9 ± 2 µM
- EC50 ([1]; 72 h, high AMA ≈120 MBq/nmol, read-out: EC50 HCT116 72 h): 0.006 ± 0.002 µM
- EC50 ([1]; 72 h, low AMA 0.8 to 4.0 MBq/nmol, read-out: EC50 HCT116 72 h): < 5 µM
- Fold more activity relative to [NatCu]Cu-NOTA-C3-TP and NOTA-C3-TP ([1]; HCT116, 48 and 72 h, low AMA): 5–66 fold
- Improvement of cytotoxicity with respect to [NatCu]Cu-NOTA-C3-TP ([1]; HCT116, 24 h, high AMA ≈120 MBq/nmol): ~17,000 fold
- Times more active than NOTA-C3-TP [1, 16]: 12 times
- Times more active than [NatCu]Cu-NOTA-C3-TP [1, 16]: 5 times
- Times more active than oxaliplatin [1, 16]: 3.4 times
- Improvement of cytotoxicity with respect to [NatCu]Cu-NOTA-C3-TP ([1]; HCT116, 72 h, high AMA ≈120 MBq/nmol): > 55,000 fold and 55,000 fold
- Selectivity toward cancer cells ([1]; HCT116 vs GM05757, 24 h): 3.9
- Times higher efficiency toward HCT116 relative to GM05757 ([1]; high AMA, 24 to 72 h): 2–4 times
- Cytotoxic activity on GM05757 lower than on HCT116 (fold) ([2]; low AMA, 24 h): at least 3.4 fold
- EC50 ([2]; read-out: EC50 GM05757 24 h, 24 h, high AMA ≈120 MBq/nmol): > 0.066 µM
- EC50 ([2]; read-out: EC50 GM05757 24 h, 24 h, low AMA 0.8 to 4.0 MBq/nmol): > 200 µM
- EC50 ([2]; read-out: EC50 GM05757 48 h, 48 h, high AMA ≈120 MBq/nmol): 0.025 ± 0.005 µM
- EC50 ([2]; read-out: EC50 GM05757 72 h, 72 h, high AMA ≈120 MBq/nmol): 0.019 ± 0.004 µM
- EC50 ([2]; read-out: EC50 GM05757 72 h, 72 h, low AMA 0.8 to 4.0 MBq/nmol): 12 ± 2 µM
- Stability in mouse plasma [4]: stable up to 72 h
- Internalization in HCT116 fold higher than in GM05757 ([5]; 24 h, 37 °C): 3.1 fold
- Internalization in HCT116 fold higher than in GM05757 ([5]; 48 h, 37 °C): 1.8 fold
- Internalization in HCT116 fold higher than in GM05757 ([5]; 72 h, 37 °C): 2.1 fold
- Uptake at 4 °C (passive accumulation), share of conjugate incubated ([5]; HCT116, 4 °C): less than 1%
- Cell-associated fraction higher than internalized fraction ([5]; HCT116, 37 °C): 2 fold
- Incubation time of maximum accumulation ([5]; HCT116, 37 °C): 24 h
- Internalized fraction ([5]; HCT116, 37 °C, 15 min incubation, % of total activity/10^6 cells): 0.04 ± 0.02%
- Cell-associated fraction (maximum) [5, 17]: 40.0 ± 2.8%
- Internalized fraction (maximum) [5, 17]: 18.7 ± 2.8%
- Cellular accumulation times larger than cisplatin ([5]; HCT116, 24 h): 14.4 times
- Cellular accumulation (maximum) ([5]; HCT116, 24 h incubation, low AMA): 72 ng of Pt/10^6 HCT116 cells
- Uptake at 4 °C lower than at 37 °C ([5]; HCT116, passive accumulation): ~ 30 fold
- Conjugate retained by cells ([6]; 72 h post administration): more than 40%
- Conjugate eliminated (efflux) ([6]; first 6 h after 1 h incubation): About 42%
- Increase in HCT116 nucleus uptake relative to [64Cu]Cu(OAc)2 ([7]; 24 h): 2.8 fold
- Nucleus accumulation HCT116 versus GM05757 (fold reduction in GM05757) ([7]; 24 h): 5.7 fold
- Increase in HCT116 nucleus uptake relative to [64Cu]Cu(OAc)2 ([7]; 48 h): 4.9 fold
- Nucleus accumulation HCT116 versus GM05757 (fold reduction in GM05757) ([7]; 48 h): 4.4 fold
- Increase in HCT116 nucleus uptake relative to [64Cu]Cu(OAc)2 ([7]; 72 h): 3.7 fold
- Nucleus accumulation HCT116 versus GM05757 (fold reduction in GM05757) ([7]; 72 h): 4.1 fold
- Cytoplasmic distribution ([7]; 24 h): 76 ± 7.3%
- Nucleus localization ([7]; 24 h): 8.6 ± 3% and 8.6%
- Cytoplasmic distribution ([7]; 48 h): 61 ± 11%
- Nucleus localization ([7]; 48 h): 13.4 ± 4%
- Cytoplasmic distribution ([7]; 72 h): 61 ± 8.3%
- Nucleus localization ([7]; 72 h): 12.3 ± 1%
- Cytoplasmic distribution ([8]; 24 h): 46 ± 6%
- Nucleus localization ([8]; 24 h): 1.5 ± 0.2%
- Cytoplasmic distribution ([8]; 48 h): 53 ± 6.5%
- Nucleus localization ([8]; 48 h): 3 ± 0.4%
- Cytoplasmic distribution ([8]; 72 h): 58.5 ± 8.3%
- Nucleus localization ([8]; 72 h): 3 ± 0.1%
- Pt released [9]: not seen
